Test results reported in patent US11014934B2, “Antiseptic drug” (AO “TATKHIMFARMPREPARATY”, priority 2017, dated 2021).

Legend:
[1] = test system: Escherichia coli CDC F-50; assay: Disinfectant activity in contaminated metal surface test; type: cell-based; settings: for time after application to effective inhibition of bacterial growth: Escherichia coli CDC F-50, 0.1% solutions
Procedure: (§1) The preparation of the bacterial suspension was carried out similarly to the procedure for determining the disinfecting activity of compound I in suspension (see example 7). To simulate protein contamination of the metal surface, a BSA solution was added to the bacterial suspension to a final concentration of 0.4%. The surface of the metal table was drawn into squares, the number of which depended on the number of strains studied. The test surface should be clean, intact, sterile. To do this, the table was cleaned with alcohol, and then with sterile water. A microbial suspension in a volume of 0.125 ml was applied to a surface area of 5×5 cm and distributed with a sterile spatula over the entire square area. After the microbial suspension was dried, a 0.5 ml solution of compound I (miramistin and benzalkonium chloride being a control) was uniformly applied to the surface at a working concentration of 0.1 and 0.2% and distributed over the square surface with a sterile spatula, and then kept for 1, 5, and 15 minutes.
(§2) After the end of exposure, the contaminated surface was thoroughly wiped with a sterile gauze cloth (size 5×5 cm) soaked in 1 ml of a neutralizer solution and the cloth was immersed in 10 ml of sterile physiological saline in a flask, which was shaken for 10 minutes.
(§3) Plating was carried out as in example 7, in addition to the controls were carried out: • control of the sterility of the surface (before applying the microbial suspension, a metal table was washed off with a sterile swab, followed by plating on a nutrient medium); • control of the vitality of the microorganism (after applying microbial suspension on the metal table, it was washed off with a sterile swab with subsequent plating on the nutrient medium).
(§4) The contamination density of 1 cm^2 of the surface and the percentage of disinfection were calculated, taking the number of colonies removed from control surfaces as 100%. The criterion for the effectiveness of surface disinfection is not less than 99.99% of the death of test microorganisms, the disinfection time is not more than 120 minutes.

[2] = test system: Staphylococcus aureus ATCC 209p; assay: as above; type: cell-based; settings: for Inhibition rate (Mean ± SD) of Staphylococcus aureus ATCC 209p growth: 0.1% solution; for Inhibition rate (M ± SD) Staphylococcus aureus ATCC 209p: 0.2% solution; for time after application to effective inhibition of bacterial growth (99.99%): Staphylococcus aureus ATCC 209p, 0.1% solutions
Procedure: as §1, §2, §3, §4

[3] = test system: E. coli CDC F-50; assay: Antiseptic activity on rat skin; type: in vivo; settings: E. coli CDC F-50 on rat skin; antiseptic concentration 0.2%; exposure time 5 min; n = 6
Procedure: The study of the antiseptic activity of compound I in rats […] was carried out in accordance with [R 4.2.2643-10 Metody laboratornykh issledovaniy i ispytaniy mediko-profilakticheskikh dezinfektsionnykh sredstv dlya otsenki ikh effektivnosti i bezopasnosti: Rukovodstvo.—M: Federal'nyy tsentr gigiyeny i epidemiologii Rospotrebnadzora, 2010.—S. 615. R 4.2.2643-10 Laboratory methods for the study and testing of medical prophylactic disinfectants to assess their effectiveness and safety: Guide.—M.:: Federal Center for Hygiene and Epidemiology of Rospotrebnadzor, 2010.—P. 615]. Experiments were carried out on male Wistar rats with a body weight of 180-250 g.
A culture of E. coli CDC F-50, grown on dense nutrient medium for (18-20) hours, was washed with sterile isotonic chloride solution, centrifuged at 5000 rpm for 5 minutes, the supernatant was drained and cells were resuspended with sterile isotonic sodium chloride solution.
The bacterial suspension of microorganisms was brought to a turbidity of […] according to McFarland, which corresponds to a concentration of 1.5×10^7 cells/ml.
Animals were formed in 5 groups of 6 animals each. All manipulations with animals were performed under isoflurane anesthesia (4%—induction of anesthesia (2 min, 1 l/min), 2%—basis narcosis). A portion of 5×5 cm was shaved with a hair clipper on the dorsal part of the body of the animal.
A 0.25 ml microbial suspension containing 1×10^7 CFU of E. coli CDC F-50 was applied to the shaved portion of the rat back with a dispenser and distributed with a sterile disposable spatula over the entire square area. It was left for 2-3 minutes until dry.
Then, a gauze cloth (5×5 cm) was applied to the skin of rats for 5 minutes. In the experimental group, the tissue was pre-wetted with 1 ml of 0.2% solution of compound I, and in the positive control groups, the tissue was dipped in 1 ml of 0.2% miramistin, benzalkonium chloride and chlorhexidine. In the negative control group, the cloth was immersed in 1 ml of sterile saline. […]
After the time required for the cultivation of microorganisms of this species, the results were counted according to the number of colonies grown on the Petri dish. […] After counting the number of colonies grown on Petri dishes, the density of contamination per 1 cm^2 of the surface and the percentage of disinfection were calculated, taking the number of colonies removed from control surfaces and not exposed to antiseptics action as 100%. The percentage of growth inhibition of E. coli CDC F-50 was calculated by the formula: […]

[4] = 0.1% solution, exposure 1 min, +BSA
[5] = 0.1% solution, exposure 1 min, −BSA
[6] = 0.1% solution, exposure 5 min, +BSA
[7] = 0.1% solution, exposure 5 min, −BSA
[8] = 0.1% solution, exposure 15 min, +BSA
[9] = 0.1% solution, exposure 15 min, −BSA
[10] = 0.2% solution, exposure 1 min, +BSA
[11] = 0.2% solution, exposure 1 min, −BSA
[12] = 0.2% solution, exposure 5 min, +BSA
[13] = 0.2% solution, exposure 5 min, −BSA
[14] = 0.2% solution, exposure 15 min, +BSA
[15] = 0.2% solution, exposure 15 min, −BSA

| Compound | Inhibition rate (M ± SD) of Escherichia coli CDC F-50 growth [1, 4] [%] | Inhibition rate (M ± SD) of Escherichia coli CDC F-50 growth [1, 5] [%] | Inhibition rate (M ± SD) of Escherichia coli CDC F-50 growth [1, 6] [%] | Inhibition rate (M ± SD) of Escherichia coli CDC F-50 growth [1, 7] [%] | Inhibition rate (M ± SD) of Escherichia coli CDC F-50 growth [1, 8] [%] | Inhibition rate (M ± SD) of Escherichia coli CDC F-50 growth [1, 9] [%] | Inhibition rate (M ± SD) of Escherichia coli CDC F-50 growth [1, 10] [%] | Inhibition rate (M ± SD) of Escherichia coli CDC F-50 growth [1, 11] [%] | Inhibition rate (M ± SD) of Escherichia coli CDC F-50 growth [1, 12] [%] | Inhibition rate (M ± SD) of Escherichia coli CDC F-50 growth [1, 13] [%] | Inhibition rate (M ± SD) of Escherichia coli CDC F-50 growth [1, 14] [%] | Inhibition rate (M ± SD) of Escherichia coli CDC F-50 growth [1, 15] [%] | time after application to effective inhibition of bacterial growth [1] [min] | Inhibition rate (Mean ± SD) of Staphylococcus aureus ATCC 209p growth ([2]; exposure 1 min, +BSA) [%] | Inhibition rate (Mean ± SD) of Staphylococcus aureus ATCC 209p growth ([2]; exposure 1 min, −BSA) [%] | Inhibition rate (Mean ± SD) of Staphylococcus aureus ATCC 209p growth ([2]; exposure 5 min, +BSA) [%] | Inhibition rate (Mean ± SD) of Staphylococcus aureus ATCC 209p growth ([2]; exposure 5 min, −BSA) [%] | Inhibition rate (Mean ± SD) of Staphylococcus aureus ATCC 209p growth ([2]; exposure 15 min, +BSA) [%] | Inhibition rate (Mean ± SD) of Staphylococcus aureus ATCC 209p growth ([2]; exposure 15 min, −BSA) [%] | Inhibition rate (M ± SD) Staphylococcus aureus ATCC 209p ([2]; exposure 1 min, +BSA) [%] | also measured |
| --- | --- | --- | --- | --- | --- | --- | --- | --- | --- | --- | --- | --- | --- | --- | --- | --- | --- | --- | --- | --- | --- |
| CCCCCCCCCCCCCC(=O)NCCC[N+](C)(C)Cc1ccccc1.O.[Cl-] [Miramistin, benzyldimethyl [3-(myristoylamino)propyl]-ammonium chloride monohydrate] | 99.75 ± 0.005 | 99.75 ± 0.00 | 99.97 ± 0.005 | 99.86 ± 0.005 | 99.99 ± 0.005 | 99.99 ± 0.005 | 99.83 ± 0.005 | 99.98 ± 0.005 | 99.99 ± 0.005 | 99.99 ± 0.005 | 99.99 ± 0.005 | 100 | 15 | 99.98 ± 0.00 | 99.98 ± 0.005 | 99.99 | 99.99 | 99.99 | 99.99 | 99.98 ± 0.00 | Inhibition rate (M ± SD) Staphylococcus aureus ATCC 209p ([2]; exposure 1 min, −BSA): 99.98 ± 0.005%; Inhibition rate (M ± SD) Staphylococcus aureus ATCC 209p ([2]; exposure 5 min, +BSA): 99.99%; Inhibition rate (M ± SD) Staphylococcus aureus ATCC 209p ([2]; exposure 5 min, −BSA): 99.99%; Inhibition rate (M ± SD) Staphylococcus aureus ATCC 209p ([2]; exposure 15 min, +BSA): 99.99%; Inhibition rate (M ± SD) Staphylococcus aureus ATCC 209p ([2]; exposure 15 min, −BSA): 99.99%; time after application to effective inhibition of bacterial growth (99.99%) [2]: 5 min; Growth inhibition rate (M ± SD) [3]: 97.2 ± 1.8% |
| alkyldimethyl(phenylmethyl) ammonium chloride [Benzalconium chloride] | 99.97 ± 0.005 | 99.96 ± 0.005 | 99.97 ± 0.005 | 99.98 ± 0.005 | 99.99 ± 0.005 | 100 ± 0.00 | 99.97 ± 0.00 | 99.99 ± 0.005 | 99.99 ± 0.005 | 100 | 100 ± 0.00 | 100 | 15 | 99.99 ± 0.005 | 99.99 | 99.99 | 99.99 | 99.99 | 99.99 ± 0.005 | 99.99 | time to effective inhibition of bacterial growth ([1]; Escherichia coli CDC F-50, concentration 0.2%, test without protein load): 1 min; Inhibition rate (M ± SD) Staphylococcus aureus ATCC 209p ([2]; exposure 1 min, −BSA): 99.99%; Inhibition rate (M ± SD) Staphylococcus aureus ATCC 209p ([2]; exposure 5 min, +BSA): 99.99%; Inhibition rate (M ± SD) Staphylococcus aureus ATCC 209p ([2]; exposure 5 min, −BSA): 99.99%; Inhibition rate (M ± SD) Staphylococcus aureus ATCC 209p ([2]; exposure 15 min, +BSA): 99.99 ± 0.005%; Inhibition rate (M ± SD) Staphylococcus aureus ATCC 209p ([2]; exposure 15 min, −BSA): 100%; time after application to effective inhibition of bacterial growth (99.99%) [2]: 5 min; Growth inhibition rate (M ± SD) [3]: 96.8 ± 2.0% |
